From patent publication US11083725B2 (priority 2014, dated 2021)

Test system: NHBE cells
Experiment: Biolog metabolic array: substrate use by NHBE cells with or without CA09 infection
Assay type: cell-based, human
Settings: for Substrate use, 590 nm absorbance normalized to zero hour, 1 hr: Biolog PMM2, 1 hr; for Substrate use, 590 nm absorbance normalized to zero hour, 5 hr: Biolog PMM2, 5 hr; for Substrate use, 590 nm absorbance normalized to zero hour, 7 hr: Biolog PMM2, 7 hr
[1] = Control (uninfected) NHBE cells
[2] = Virus (CA09-infected NHBE cells, MOI 1)
[3] = Virus: CA09-infected NHBE cells, MOI 1, Biolog PMM2
[4] = Virus (CA09, MOI 1) infected NHBE cells
[5] = Virus (CA09-infected, MOI 1) NHBE cells

`C[C@@H]1OC(O)[C@@H](O)[C@H](O)[C@@H]1O` (stereo partly drawn) [L-Fucose] was tested, and the “590 nm absorbance normalized to zero hour (substrate use), 0 hr” value [1] was 1.00, the “590 nm absorbance normalized to zero hour (substrate use), 1 hr” value [1] was 0.10 and the “590 nm absorbance normalized to zero hour (substrate use), 2 hr” value (shortened to “590 nm absorbance normalized … 2 hr”) [1] was 0.20. The “590 nm absorbance normalized to zero hour (substrate use), 3 hr” value (“590 nm absorbance normalized … 3 hr” for short) [1] was 0.18, the “590 nm absorbance normalized to zero hour (substrate use), 4 hr” value (“590 nm absorbance normalized … 4 hr” below) [1] was 0.18 and the “590 nm absorbance normalized to zero hour (substrate use), 6 hr” value (shortened to “590 nm absorbance normalized … 6 hr”) [1] was 0.26. The “590 nm absorbance normalized to zero hour (substrate use), 8 hr” value (“590 nm absorbance normalized … 8 hr” for short) [1] was 0.27, the “590 nm absorbance normalized to zero hour (substrate use), 9 hr” value (“590 nm absorbance normalized … 9 hr” below) [1] was 0.26 and the “590 nm absorbance normalized to zero hour (substrate use), 10 hr” value (shortened to “590 nm absorbance normalized … 10 hr”) [1] was 0.24. For the same compound, the “590 nm absorbance normalized to zero hour (substrate use), 11 hr” value (from here on “590 nm absorbance normalized … 11 hr”) [1] was 0.26, the “Substrate use, 590 nm absorbance normalized to zero hour, 0 hr” value (Control (uninfected) NHBE cells, Biolog PMM2, 0 hr) was 1.00 and the “Substrate use, 590 nm absorbance normalized to zero hour, 1 hr” value [1] was 0.10. The “Substrate use, 590 nm absorbance normalized to zero hour, 5 hr” value [1] was 0.22, the “Substrate use, 590 nm absorbance normalized to zero hour, 7 hr” value [1] was 0.25 and the “590 nm absorbance normalized to zero hour (substrate use), 0 hr” value [2] was 1.00. For the same compound, the “590 nm absorbance normalized to zero hour (substrate use), 1 hr” value [2] was 0.21, the “590 nm absorbance normalized … 2 hr” value [2] was 0.28 and the “590 nm absorbance normalized … 3 hr” value [2] was 0.33. For the same compound, the “590 nm absorbance normalized … 4 hr” value [2] was 0.35, the “590 nm absorbance normalized to zero hour (substrate use), 5 hr” value [2] was 0.42 and the “590 nm absorbance normalized … 6 hr” value [2] was 0.45. The “590 nm absorbance normalized to zero hour (substrate use), 7 hr” value [2] was 0.47, the “590 nm absorbance normalized … 8 hr” value [2] was 0.50 and the “590 nm absorbance normalized … 9 hr” value [2] was 0.54. The “590 nm absorbance normalized … 10 hr” value [2] was 0.57, the “590 nm absorbance normalized … 11 hr” value [2] was 0.61 and the “590 nm absorbance normalized to zero hour (substrate use), 0 hr” value [3] was 1.00. The “590 nm absorbance normalized to zero hour (substrate use), 1 hr” value [3] was 0.21, the “590 nm absorbance normalized … 2 hr” value [3] was 0.28 and the “590 nm absorbance normalized … 3 hr” value [3] was 0.33. For the same compound, the “590 nm absorbance normalized … 4 hr” value [3] was 0.35, the “590 nm absorbance normalized to zero hour (substrate use), 5 hr” value [3] was 0.42 and the “590 nm absorbance normalized … 6 hr” value [3] was 0.45. The “590 nm absorbance normalized to zero hour (substrate use), 7 hr” value [3] was 0.47, the “590 nm absorbance normalized … 8 hr” value [3] was 0.50 and the “590 nm absorbance normalized … 9 hr” value [3] was 0.54. For the same compound, the “590 nm absorbance normalized … 10 hr” value [3] was 0.57 and the “590 nm absorbance normalized … 11 hr” value [3] was 0.61.
In the case of `NC(=O)CCC(=O)O` [Succinamic Acid], the “590 nm absorbance normalized to zero hour (substrate use), 1 hr” value [1] was 1.11, the “590 nm absorbance normalized … 2 hr” value [1] was 0.37 and the “590 nm absorbance normalized … 3 hr” value [1] was 0.42. For the same compound, the “590 nm absorbance normalized … 4 hr” value [1] was 0.42, the “590 nm absorbance normalized … 6 hr” value [1] was 0.44 and the “590 nm absorbance normalized … 8 hr” value [1] was 0.51. For the same compound, the “590 nm absorbance normalized … 9 hr” value [1] was 0.54, the “590 nm absorbance normalized … 10 hr” value [1] was 0.56 and the “590 nm absorbance normalized … 11 hr” value [1] was 0.61. The “Substrate use, 590 nm absorbance normalized to zero hour, 1 hr” value [1] was 1.11, the “Substrate use, 590 nm absorbance normalized to zero hour, 5 hr” value [1] was 0.45 and the “Substrate use, 590 nm absorbance normalized to zero hour, 7 hr” value [1] was 0.50. The “Substrate use, 590 nm absorbance normalized to zero hour, 1 hr” value [4] was 1.45, the “Substrate use, 590 nm absorbance normalized to zero hour, 5 hr” value [4] was 2.03 and the “Substrate use, 590 nm absorbance normalized to zero hour, 7 hr” value [4] was 2.22. The “590 nm absorbance normalized to zero hour (substrate use), 1 hr” value [5] was 1.45, the “590 nm absorbance normalized … 2 hr” value [5] was 1.65 and the “590 nm absorbance normalized … 3 hr” value [5] was 1.88. For the same compound, the “590 nm absorbance normalized … 4 hr” value [5] was 1.85, the “590 nm absorbance normalized … 6 hr” value [5] was 2.14 and the “590 nm absorbance normalized … 8 hr” value [5] was 2.30. For the same compound, the “590 nm absorbance normalized … 9 hr” value [5] was 2.41, the “590 nm absorbance normalized … 10 hr” value [5] was 2.37 and the “590 nm absorbance normalized … 11 hr” value [5] was 2.51.
`OC[C@@H](O)[C@H](O)[C@@H](O)CO` [Xylitol] was tested, and the “590 nm absorbance normalized to zero hour (substrate use), 1 hr” value [1] was 1.02, the “590 nm absorbance normalized … 2 hr” value [1] was 1.53 and the “590 nm absorbance normalized … 3 hr” value [1] was 1.57. The “590 nm absorbance normalized … 4 hr” value [1] was 1.01, the “590 nm absorbance normalized … 6 hr” value [1] was 0.40 and the “590 nm absorbance normalized … 8 hr” value [1] was 1.49. For the same compound, the “590 nm absorbance normalized … 9 hr” value [1] was 1.02, the “590 nm absorbance normalized … 10 hr” value [1] was 0.97 and the “590 nm absorbance normalized … 11 hr” value [1] was 0.97. The “Substrate use, 590 nm absorbance normalized to zero hour, 1 hr” value [1] was 1.02, the “Substrate use, 590 nm absorbance normalized to zero hour, 5 hr” value [1] was 1.51 and the “Substrate use, 590 nm absorbance normalized to zero hour, 7 hr” value [1] was 1.01. For the same compound, the “Substrate use, 590 nm absorbance normalized to zero hour, 1 hr” value [4] was 1.69, the “Substrate use, 590 nm absorbance normalized to zero hour, 5 hr” value [4] was 3.95 and the “Substrate use, 590 nm absorbance normalized to zero hour, 7 hr” value [4] was 4.50. The “590 nm absorbance normalized to zero hour (substrate use), 1 hr” value [5] was 1.69, the “590 nm absorbance normalized … 2 hr” value [5] was 2.39 and the “590 nm absorbance normalized … 3 hr” value [5] was 3.14. For the same compound, the “590 nm absorbance normalized … 4 hr” value [5] was 3.34, the “590 nm absorbance normalized … 6 hr” value [5] was 4.25 and the “590 nm absorbance normalized … 8 hr” value [5] was 4.55. For the same compound, the “590 nm absorbance normalized … 9 hr” value [5] was 5.13, the “590 nm absorbance normalized … 10 hr” value [5] was 4.85 and the “590 nm absorbance normalized … 11 hr” value [5] was 5.48.
